Values joined by “and” are separate entries in the source; they are usually repeats but may differ in a detail not shown here. Equal entries are not always repeated.
Tested on: DMARD-refractory active RA
Experiment: Phase 2a trial of masitinib in DMARD-refractory active RA: efficacy (ACR, ACRn, CRP, DAS28)
Assay type: in vivo, Human
Set-up: ACRn Mean ± SD / ACRn Median: unit not given here
Text: The main exclusion criteria were patients with: inadequate bone marrow function, defined as an absolute neutrophil count ≦2.5×10^9/litre, and platelets ≦100×10^9/litre; active current infection, history of infection requiring hospitalisation, history of recurrent infections, or treatment with antibiotics within 2 weeks of screening. Treatment wash-out periods observed prior to entry to the study were: a) DMARD use within 4 weeks; b) five half-lives, or wash-out in accordance for a specific drug, whichever is longer; c) any live (attenuated) vaccines taken within 4 weeks; d) use of more than one NSAID or its dosage change within 4 weeks; e) prednisone or equivalent corticosteroid dosage >10 mg/day or any dosage change within 4 weeks; and f) prednisone or equivalent corticosteroid dosage >20 mg administered via intra-articular injection, bolus intramuscular or intravenous treatment within 4 weeks. Other exclusion criteria included any previous use of recombinant interleukin-1 receptor antagonist (IL1-Ra) and patients who were pregnant or nursing.
Efficacy data are presented using descriptive statistics, contrasting initial dosage groups or according to previous DMARD failure. For comparison of groups according to initial dosage on a continuous variable, Student test (with Satterwhaite correction for unequal variance) or Wilcoxon test were used when normality was not rejected or rejected, respectively (normality determined via the Shapiro-Wilk test). For the same comparison on a qualitative variable, Chi-square or Fisher Exact test (if the Chi-square hypotheses were not filled) were used. The rate of patients achieving the various ACR response variables after 12 weeks of treatment (remission rate) are presented in terms of percentage and number of patients. Patients were assigned to either 3 or 6 mg/kg/day treatment groups based upon a randomisation schedule generated for packaging and labelling by the Biostatistics Section of AB Science. Individual treatment doses to be administered were supplied in sealed envelopes to be opened by the investigator at time of inclusion. Patients received the treatment from the investigator on an open basis.
Due to the relatively high patient drop-out rate of this study, analysis was conducted on two different datasets: one with an imputation of missing values according to the last observation carried forward (LOCF) methodology and the other in the absence of data imputation, i.e. the observed cases (OC). Analysis for efficacy was performed on a modified Intention-To-Treat (ITT) population and Per Protocol (PP) population. […] The PP population was defined as a subgroup of the ITT population that in addition had presented no major protocol deviations and had completed at least 28 days of treatment exposure.

[1] = W 60, extension phase, ITT population, n = 8
[2] = W 72, extension phase, ITT population, n = 7
[3] = W 72, extension phase, ITT population, n = 9
[4] = W 84, extension phase, ITT population, n = 4
[5] = W 84, extension phase, ITT population, n = 8
[6] = initial dosage 3 mg/kg/day (n = 22), ITT population
[7] = initial dosage 3 mg/kg/day (n = 22), ITT population, listed as Masitinib
[8] = initial dosage 6 mg/kg/day (n = 18), ITT population
[9] = week 12, ITT LOCF, All patients (n = 34)
[10] = week 12, ITT LOCF, All patients (n = 39)
[11] = week 12, ITT LOCF, Resistance to MTX (n = 28)
[12] = week 12, ITT LOCF, Resistance to MTX (n = 32)
[13] = week 12, ITT LOCF, Resistance to anti-TNFα (n = 18)
[14] = week 12, ITT LOCF, Resistance to anti-TNFα (n = 19)
[15] = week 12, PP OC, All patients (n = 24)
[16] = week 12, PP OC, All patients (n = 27)
[17] = week 12, PP OC, Resistance to MTX (n = 20)
[18] = week 12, PP OC, Resistance to MTX (n = 23)
[19] = week 12, PP OC, Resistance to anti-TNFα (n = 13)
[20] = week 12, PP OC, Resistance to anti-TNFα (n = 14)

## Cc1ccc(NC(=O)c2ccc(CN3CCN(C)CC3)cc2)cc1Nc1nc(-c2cccnc2)cs1 [masitinib, 4-(4-methylpiperazin-1-ylmethyl)-N-[4-methyl-3-(4-pyridin-3ylthiazol-2-ylamino)phenyl]benzamide]
[1]
  ACRn Median: 64.9
  ACRn Min-Max: 10.0-93.3
[2]
  DAS28 <2.6, patients: 1 (14%)
  DAS28 Mean ± SD: 3.5 ± 1.5
  DAS28 Median: 3.0
  DAS28 Min-Max: 1.6-6.1
  DAS28 ≦3.2, patients: 4 (57%)
[3]
  ACR20, patients reaching level: 6 (67%)
  ACR50, patients reaching level: 3 (33%)
  ACR70, patients reaching level: 2 (22%)
  ACR90, patients reaching level: 1 (11%)
  ACRn Mean ± SD: 35.6 ± 41.3
  ACRn Median: 39.7
  ACRn Min-Max: −27.8-97.4
  CRP 0% < Improvement ≦25%, patients: 1 (11%)
  CRP 25% < Improvement ≦50%, patients: 1 (11%)
  CRP Deterioration, patients: 1 (11%)
  CRP Improvement >50%, patients: 6 (68%)
  CRP Stable, patients: 0 (0%)
[4]
  DAS28 <2.6, patients: 2 (50%)
  DAS28 Mean ± SD: 3.1 ± 1.6
  DAS28 Median: 2.5
  DAS28 Min-Max: 1.9-5.5
  DAS28 ≦3.2, patients: 3 (75%)
[5]
  ACR20, patients reaching level: 7 (88%)
  ACR50, patients reaching level: 5 (63%)
  ACR70, patients reaching level: 2 (25%)
  ACR90, patients reaching level: 1 (13%)
  ACRn Mean ± SD: 50.9 ± 38.0
  ACRn Median: 55.0
  ACRn Min-Max: −17.6-98.8
  CRP 0% < Improvement ≦25%, patients: 1 (13%)
  CRP 25% < Improvement ≦50%, patients: 1 (13%)
  CRP Deterioration, patients: 1 (13%)
  CRP Improvement >50%, patients: 5 (63%)
  CRP Stable, patients: 0 (0%)
Dosage not given
  Share of patients achieving ACR20 who did so at the stated dosage at time of first response: approximately 65%
  Share of patients achieving ACR50 who did so at the stated dosage at time of first response: ~73%
Extension phase, after 1 year of treatment (60 weeks)
  Patients achieving up to 90% improvement (ACR90): two
Extension phase, preliminary
  Duration over which observed improvement is maintained: > 84 weeks
[6]
  Time to first response ACR20, Mean ± SD: 51.9 ± 24.5 days
  Time to first response ACR20, Median: 56 days
  Time to first response ACR20, Min-Max: 28.0 to 105.0 days
  Time to first response ACR50, Mean ± SD: 91.9 ± 59.5 days
  Time to first response ACR50, Median: 84 days
  Time to first response ACR50, Min-Max: 28.0 to 217.0 days
[7]
  Time to first response ACR20, Median: 56.0 days
  Time to first response ACR50, Median: 84.0 days
[8]
  Time to first response ACR20, Mean ± SD: 40.3 ± 19.0 days
  Time to first response ACR20, Median: 29 days
  Time to first response ACR20, Min-Max: 28.0 to 86.0 days
  Time to first response ACR50, Mean ± SD: 86.8 ± 61.1 days
  Time to first response ACR50, Median: 72.5 days
  Time to first response ACR50, Min-Max: 28.0 to 203.0 days
Initial dosage 6 mg/kg/day (n = 18), ITT population, listed as Masitinib
  Time to first response ACR20, Median: 29.0 days
Regardless of previous treatment (anti-TNFα or MTX failure)
  Patients achieving ACR20 and ΔCRP>50% response criteria: approximately 50%
Week 12
  Patients with significant reduction (>50%) in CRP levels: approximately 50%
[9]
  DAS28 Mean ± SD: 4.8 ± 1.5
  DAS28 Min-Max: 0.5-7.0
  ΔDAS28 (change in DAS28 score from baseline): 1.7
[10]
  ACRn Mean ± SD: 23.0 and 23.0 ± 37.5
  ACRn Median: 25.7
  ACRn Min-Max: −62.5-87.5
[11]
  DAS28 Mean ± SD: 4.8 ± 1.5
  DAS28 Min-Max: 0.5-7.0
  ΔDAS28 (change in DAS28 score from baseline): 1.8
[12]
  ACRn Mean ± SD: 24.1 ± 38.8
  ACRn Median: 32.7
  ACRn Min-Max: −62.5-87.5
[13]
  DAS28 Mean ± SD: 5.2 ± 1.1
  DAS28 Min-Max: 3.3-7.0
  ΔDAS28 (change in DAS28 score from baseline): 1.7
[14]
  ACRn Mean ± SD: 18.7 ± 36.8
  ACRn Median: 20.6
  ACRn Min-Max: −62.5-72.2
[15]
  DAS28 Mean ± SD: 4.6 ± 1.3
  DAS28 Min-Max: 0.5-7.0
  ΔDAS28 (change in DAS28 score from baseline): 2.0
[16]
  ACRn Mean ± SD: 31.6
  ACRn Median: 42.9
  ACRn Min-Max: −40.0-87.5
[17]
  DAS28 Mean ± SD: 4.6 ± 1.4
  DAS28 Min-Max: 0.5-7.0
  ΔDAS28 (change in DAS28 score from baseline): 2.1
[18]
  ACRn Mean ± SD: 36.6 ± 31.6
  ACRn Median: 46.9
  ACRn Min-Max: −40.0-87.5
[19]
  DAS28 Mean ± SD: 5.1 ± 1.2
  DAS28 Min-Max: 3.3-7.0
  ΔDAS28 (change in DAS28 score from baseline): 1.8
[20]
  ACRn Mean ± SD: 28.1 ± 32.1
  ACRn Median: 44.3
  ACRn Min-Max: 40.0-72.2
